Measured values as given in patent US12319708B2, “Agonists of peroxisome proliferator-activated receptor alpha (PPARα) and methods of use” (The Board of Regents of the University of Oklahoma, priority 2018, dated 2025).
Where two headings read alike, the source gives them in different places.

Molecular target: T1, hPPARα (Homo sapiens, UniProt Q07869)
T1 sequence (Q07869 1-468): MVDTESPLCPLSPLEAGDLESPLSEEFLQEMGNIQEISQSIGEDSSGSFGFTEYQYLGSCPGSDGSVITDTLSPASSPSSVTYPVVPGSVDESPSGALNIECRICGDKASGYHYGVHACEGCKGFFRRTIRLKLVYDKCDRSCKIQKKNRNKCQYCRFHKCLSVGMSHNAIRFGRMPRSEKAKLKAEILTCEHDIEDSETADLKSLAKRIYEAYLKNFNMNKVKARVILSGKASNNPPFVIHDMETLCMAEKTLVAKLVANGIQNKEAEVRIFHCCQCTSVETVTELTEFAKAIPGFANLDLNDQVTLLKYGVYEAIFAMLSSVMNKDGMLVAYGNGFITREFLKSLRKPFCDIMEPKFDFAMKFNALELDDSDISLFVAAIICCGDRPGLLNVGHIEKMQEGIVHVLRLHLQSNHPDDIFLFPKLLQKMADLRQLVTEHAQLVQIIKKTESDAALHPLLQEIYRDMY
Test: PPARα luciferase cell reporter assay (Indigo Biosciences)
Type: cell-based
Conditions: for ratio (5/50): ratio of relative light unit (RLU) signal at 5 and 50 μM: 5 and 50 μM compound concentrations; for fold-signal: ratio of maximal signal strength to that obtained with GW590735: relative to GW590735
Text: With the focused subset of analogs in-hand, our efforts shifted to the evaluation of these derivatives for PPARα agonism. Preliminary evaluation utilized a commercially available PPARα luciferase cell reporter assay (Indigo Biosciences). The cell-line employed is engineered to constitutively express high-levels of hPPARα. Upon interaction with an agonist, hPPARα translocates to the nucleus, binds to the PPRE, and upregulates gene transcription, including the inserted luciferase gene. Luciferase activity is detected indirectly through quantification of oxyluciferin production.

[1] = mean ± SEM of at least two separate experiments in triplicate (Table 9), read-out: EC50 hPPARα
[2] = structure IIa compounds (Table 6)
[3] = Table 6, cellular luciferase activity, read-out: α EC50
[4] = structure IIb compounds (Table 8)

Compound | Fold (5 μM): fold increase in luciferase compared to DMSO negative control [2] [fold] | Fold (50 μM): fold increase in luciferase compared to DMSO negative control [2] [fold] | also measured
Cc1cc(CNc2cccc(C(=O)O)c2)ccc1OCc1cc(F)cc(F)c1 [25′] |  |  | ratio (5/50): ratio of relative light unit (RLU) signal at 5 and 50 μM: 1.1; fold-signal: ratio of maximal signal strength to that obtained with GW590735: 1.6
O=C(O)c1cccc(NCc2ccc(OCc3ccc(F)cc3)c(F)c2)c1 [26′] |  |  | ratio (5/50): ratio of relative light unit (RLU) signal at 5 and 50 μM: 0.7; fold-signal: ratio of maximal signal strength to that obtained with GW590735: 1.7
O=C(O)c1cccc(NCc2ccc(OCc3ccc(F)cc3)c(Cl)c2)c1 [27′] |  |  | ratio (5/50): ratio of relative light unit (RLU) signal at 5 and 50 μM: 1.1; fold-signal: ratio of maximal signal strength to that obtained with GW590735: 1.5
Cc1cc(CN(C)c2cccc(C(=O)O)c2)ccc1OCc1ccc(F)cc1 [30′] |  |  | ratio (5/50): ratio of relative light unit (RLU) signal at 5 and 50 μM: 0.8; EC50 [1]: 0.067 ± 0.01 µM; fold-signal: ratio of maximal signal strength to that obtained with GW590735: 2.1
O=C(O)c1cc(F)cc(NCc2ccc(OCc3ccc(F)cc3)c(Cl)c2)c1 [32′] |  |  | ratio (5/50): ratio of relative light unit (RLU) signal at 5 and 50 μM: 1.1; EC50 [1]: 0.052 ± 0.011 µM; fold-signal: ratio of maximal signal strength to that obtained with GW590735: 1.8
COc1ccc(COc2ccc(CNc3cccc(B(O)O)c3)cc2)cc1 [Compound 110] | 1 | 1 | 
CC(C)(Oc1cccc(NCc2ccc(OCc3ccccc3)cc2)c1)C(=O)O [Compound 116] | 1 | 46 | 
O=C(O)c1cccc(NCc2ccc(OCc3ccccc3)cc2)c1 [Compound 117] | 18 | 35 | 
O=C(O)c1cccc(NCc2ccc(OCc3ccc(Cl)cc3Cl)cc2)c1 [Compound 118] | 1 | 37 | 
O=C(O)c1cccc(NCc2ccc(OCc3cc(F)cc(F)c3)cc2)c1 [Compound 119] | 9 | 35 | 
O=C(O)c1cccc(NCc2ccc(OCc3ccc([N+](=O)[O-])cc3)cc2)c1 [Compound 120] | 16 | 35 | 
CC(C)(Oc1cccc(NCc2ccc(OCc3cc(F)cc(F)c3)cc2)c1)C(=O)O [Compound 121] | 16 | 42 | 
O=C(O)c1cccc(NCc2ccc(OCc3ccc(Cl)cc3)cc2)c1 [Compound 122] | 17 | 36 | 
CC(C)(Oc1cccc(NCc2ccc(OCc3ccc(Cl)cc3)cc2)c1)C(=O)O [Compound 123] | 2 | 55 | 
O=C(O)c1cccc(NCc2ccc(OCc3ccc(C(F)(F)F)cc3)cc2)c1 [Compound 126] | 81 | 100 | EC50 [3]: 0.8 µM
CC(C)(Oc1cccc(NCc2ccc(OCc3ccc(F)cc3)cc2)c1)C(=O)O [Compound 127] | 11 | 150 | 
CC(C)(Oc1cccc(NCc2ccc(OCc3ccc(C(F)(F)F)cc3)cc2)c1)C(=O)O [Compound 128] | 19 | 106 | 
O=C(O)COc1cccc(NCc2ccc(OCc3ccc(C(F)(F)F)cc3)cc2)c1 [Compound 129] | 2 | 112 | 
COc1ccc(COc2ccc(CNc3cccc(OCC(=O)O)c3)cc2)cc1 [Compound 130] | 2 | 43 | EC50 [3]: 29.2 µM
O=C(O)c1cccc(NCCc2ccc(OCCc3ccccc3)cc2)c1 [Compound 133] | 1 | 0 | 
COc1ccc(COc2ccc(CNc3cccc(C(=O)NO)c3)cc2)cc1 [Compound 134] | 3 | 9 | 
CS(=O)(=O)Nc1cccc(NCc2ccc(OCc3ccc(F)cc3)cc2)c1 [Compound 145] | 3 | 5 | 
O=C(NO)c1cccc(NCc2ccc(OCc3ccc(F)cc3)cc2)c1 [Compound 146] | 34 | 53 | 
NS(=O)(=O)c1cccc(NCc2ccc(OCc3ccc(F)cc3)cc2)c1 [Compound 147] | 3 | 3 | 
Fc1ccc(COc2ccc(CNc3cccc(-c4nnn[nH]4)c3)cc2)cc1 [Compound 148] | 73 | 85 | EC50 [3]: 5.7 µM
CN(Cc1ccc(OCc2ccc(F)cc2)cc1)c1cccc(C(=O)O)c1 [Compound 151] | 102 | 109 | EC50 [3]: 1 µM
CN(Cc1ccc(OCc2ccc(F)cc2)cc1)c1cccc(OC(C)(C)C(=O)O)c1 [Compound 153] | 94 | 120 | EC50 [3]: 1.7 µM
OB(O)c1cccc(NCc2ccc(OCc3ccc(F)cc3)cc2)c1 [Compound 154] | 3 | 2 | 
O=C(O)c1ccc(NCc2ccc(OCc3ccc(C(F)(F)F)cc3)cc2)cc1 [Compound 155] |  |  | Fold (5 μM): fold increase in luciferase compared to DMSO negative control [4]: 4 fold; Fold (50 μM): fold increase in luciferase compared to DMSO negative control [4]: 8 fold
COc1ccc(COc2ccc(CNc3ccc(C(=O)O)cc3)cc2)cc1 [Compound 162] |  |  | Fold (5 μM): fold increase in luciferase compared to DMSO negative control [4]: 4 fold; Fold (50 μM): fold increase in luciferase compared to DMSO negative control [4]: 29 fold
